From ChEMBL document CHEMBL1133232, “The design and synthesis of thrombin inhibitors: analogues of MD805 containing non-polar surrogates for arginine at the P1 position” (Bioorg Med Chem Lett, 2000)

Assays:
Prothrombin = Prothrombin (Homo sapiens, UniProt P00734); test: Compound was evaluated for its inhibitory activity against Thrombin
Serine protease 1 = Serine protease 1 (Homo sapiens, UniProt P07477); test: Compound was evaluated for its inhibitory activity against Trypsin
Coagulation factor X = Coagulation factor X (Homo sapiens, UniProt P00742); test: Compound was evaluated for its inhibitory activity against Coagulation factor X
Chain of Coagulation factor X (P00742 41-179 limits assumed): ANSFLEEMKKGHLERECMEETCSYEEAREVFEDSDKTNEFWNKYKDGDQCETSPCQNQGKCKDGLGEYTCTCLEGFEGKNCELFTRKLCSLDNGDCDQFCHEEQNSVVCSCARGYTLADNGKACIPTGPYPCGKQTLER
Chain of Coagulation factor X (P00742 235-488 limits assumed): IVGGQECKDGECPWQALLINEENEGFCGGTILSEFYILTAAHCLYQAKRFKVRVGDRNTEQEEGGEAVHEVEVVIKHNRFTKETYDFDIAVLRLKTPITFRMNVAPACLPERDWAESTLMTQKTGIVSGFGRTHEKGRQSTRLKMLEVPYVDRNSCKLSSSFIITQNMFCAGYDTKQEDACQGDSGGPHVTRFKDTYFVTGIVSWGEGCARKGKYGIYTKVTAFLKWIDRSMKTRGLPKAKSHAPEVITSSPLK

Plasminogen = Plasminogen (Homo sapiens, UniProt P00747); test: Compound was evaluated for its inhibitory activity against plasmin
Chain of Plasminogen (P00747 97-580 limits assumed): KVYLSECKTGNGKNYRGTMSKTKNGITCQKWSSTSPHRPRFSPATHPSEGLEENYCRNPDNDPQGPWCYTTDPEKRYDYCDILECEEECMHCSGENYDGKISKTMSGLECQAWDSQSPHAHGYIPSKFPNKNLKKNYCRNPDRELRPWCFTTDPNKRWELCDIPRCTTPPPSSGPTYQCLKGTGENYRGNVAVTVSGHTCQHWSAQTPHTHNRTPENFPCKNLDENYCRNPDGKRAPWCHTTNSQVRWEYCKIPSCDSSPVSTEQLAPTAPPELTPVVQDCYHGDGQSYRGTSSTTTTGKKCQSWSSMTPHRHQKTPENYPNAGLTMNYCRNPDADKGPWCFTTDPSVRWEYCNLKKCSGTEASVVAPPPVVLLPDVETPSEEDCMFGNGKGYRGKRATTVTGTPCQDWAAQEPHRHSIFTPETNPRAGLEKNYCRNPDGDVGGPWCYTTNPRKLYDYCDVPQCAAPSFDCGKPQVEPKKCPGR
Chain of Plasminogen (P00747 581-810 limits assumed): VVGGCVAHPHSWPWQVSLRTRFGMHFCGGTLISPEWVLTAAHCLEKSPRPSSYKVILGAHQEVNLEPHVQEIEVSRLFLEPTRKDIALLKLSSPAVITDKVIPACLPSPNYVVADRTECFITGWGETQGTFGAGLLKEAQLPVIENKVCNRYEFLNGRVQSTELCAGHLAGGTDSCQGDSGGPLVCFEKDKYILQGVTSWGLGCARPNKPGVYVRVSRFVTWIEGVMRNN

Kallikrein-1 = Kallikrein-1 (Homo sapiens, UniProt P06870); test: Compound was evaluated for its inhibitory activity against kallikrein
Chain of Kallikrein-1 (P06870 whole entry): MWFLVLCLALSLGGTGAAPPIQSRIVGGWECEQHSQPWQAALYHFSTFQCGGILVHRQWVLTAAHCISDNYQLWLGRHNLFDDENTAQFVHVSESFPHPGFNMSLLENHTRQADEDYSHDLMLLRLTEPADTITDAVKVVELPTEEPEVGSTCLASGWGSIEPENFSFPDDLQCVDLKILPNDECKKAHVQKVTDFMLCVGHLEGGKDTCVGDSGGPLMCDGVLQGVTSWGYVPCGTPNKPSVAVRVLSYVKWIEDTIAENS

Chain of Serine protease 1 (P07477 whole entry): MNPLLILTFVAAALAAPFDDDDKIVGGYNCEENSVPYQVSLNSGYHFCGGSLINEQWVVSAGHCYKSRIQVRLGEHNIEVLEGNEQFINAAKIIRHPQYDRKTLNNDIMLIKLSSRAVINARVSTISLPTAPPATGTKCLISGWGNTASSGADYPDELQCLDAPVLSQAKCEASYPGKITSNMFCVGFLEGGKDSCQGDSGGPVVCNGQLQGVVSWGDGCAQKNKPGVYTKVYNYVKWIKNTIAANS

Compound | Ki (Prothrombin) [µM] | Ki (Serine protease 1) [µM] | Ki (Coagulation factor X) [µM] | Ki (Plasminogen) [µM] | Ki (Kallikrein-1) [µM]
CC1(C)CNc2c(cccc2S(=O)(=O)N[C@@H](Cc2cccnc2)C(=O)N2CCC(CCO)CC2)C1 | 19.6 |  |  |  | 
CC1(C)CNc2c(cccc2S(=O)(=O)N[C@@H](CSCCCN)C(=O)N2CCC(CCF)CC2)C1 | 0.126 | 1.32 | 87 | 4 | > 87
CC1(C)CNc2c(cccc2S(=O)(=O)N[C@@H](CSCCCN)C(=O)N2CCC(CCO)CC2)C1 | 0.28 | 1.78 | 87 | 6.2 | > 87
CC1CNc2c(cccc2S(=O)(=O)N[C@@H](CCc2ccccc2)C(=O)N2CCC(CCO)CC2)C1 (some centres undefined) | 47.3 |  |  |  | 
CC1(C)CNc2c(cccc2S(=O)(=O)NC(Cc2nc(-c3ccccc3)cs2)C(=O)N2CCC(CCO)CC2)C1 (centres undefined) | 3.28 |  |  |  | 
CC1CNc2c(cccc2S(=O)(=O)N[C@@H](Cc2nc3ccccc3o2)C(=O)N2CCC(CCO)CC2)C1 (some centres undefined) | 3.1 |  |  |  | 
CC1(C)CNc2c(cccc2S(=O)(=O)NC(Cc2nc3ccncc3s2)C(=O)N2CCC(CCF)CC2)C1 (centres undefined) | 0.81 |  |  |  | 
CC1(C)CNc2c(cccc2S(=O)(=O)NC(Cc2nc3cncnc3s2)C(=O)N2CCC(CCF)CC2)C1 (centres undefined) | 4.56 |  |  |  | 
Cc1csc(CC(NS(=O)(=O)c2cccc3c2NCC(C)(C)C3)C(=O)N2CCC(CCO)CC2)n1 (centres undefined) | 2.19 |  |  |  | 
CC1(C)CNc2c(cccc2S(=O)(=O)NC(Cc2nc(CN)cs2)C(=O)N2CCC(CCO)CC2)C1 (centres undefined) | 0.76 |  |  |  | 
CCC1CCN(C(=O)C(Cc2nc3ccccc3s2)NS(=O)(=O)c2cccc3c2NCC(C)(C)C3)CC1 (centres undefined) | 0.248 | 260 | 92 | 240 | 92
CC1CNc2c(cccc2S(=O)(=O)N[C@@H](Cc2c[nH]c3ccccc23)C(=O)N2CCC(CCO)CC2)C1 (some centres undefined) | 1.57 |  |  |  | 
CC(=O)OCCC1CCN(C(=O)C(Cc2nc3ccccc3[nH]2)NS(=O)(=O)c2cccc3c2NCC(C)(C)C3)CC1 (centres undefined) | 0.452 |  |  |  | 
CC1(C)CNc2c(cccc2S(=O)(=O)NC(Cc2nc3ccccc3s2)C(=O)N2CCC(CCO)CC2)C1 (centres undefined) | 0.0798 |  |  |  | 
CC1(C)CNc2c(cccc2S(=O)(=O)NC(Cc2nc3ccccc3s2)C(=O)N2CCC(CCF)CC2)C1 (stereo in doubt) | 0.028 |  |  |  | 
CC1CNc2c(cccc2S(=O)(=O)N[C@@H](Cc2nc3ccccc3s2)C(=O)N2CCC(CCO)CC2)C1 (stereo in doubt; 23) | 0.118 |  |  |  | 
CC1(C)CNc2c(cccc2S(=O)(=O)NC(Cc2nc3ccccc3s2)C(=O)N2CCC(CCF)CC2)C1 (stereo in doubt; 26) | 0.026 |  |  |  | 
CC1CNc2c(cccc2S(=O)(=O)N[C@@H](Cc2nc3ccccc3s2)C(=O)N2CCC(CCO)CC2)C1 (stereo in doubt; 33) | 0.118 | 126 | 45 | 109 | > 45
